Source: patent US20170121344A1 (Siga Technologies, Inc., priority 2009, published 2017)
Where two headings read alike, the source gives them in different places.

Tests used:
[1] = tested on: Dengue-2 (Strain New Guinea C); test: Viral yield assay against Dengue-2 in Vero cells; format: cell-based, Dengue virus; settings: Dengue virus, read-out: Activity (EC50 in μM) DENV-2
Procedure, shortened: (§1)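 Vero cells were infected with dengue virus at an MOI of 0.1, treated with compound or DMSO vehicle, and kept at 37° C. Supernatant virus was harvested 48 hours post infection and titered on Vero cells, with EC50 derived from yield reduction.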

DENV-1 = test: Viral yield assay against DENV-1 in Vero cells; format: cell-based; settings: Dengue virus
Procedure, shortened: as §1

DENV-4 = test: Viral yield assay against DENV-4 in Vero cells; format: cell-based; settings: Dengue virus
Procedure, shortened: as §1

DENV-3 = test: Viral yield assay against DENV-3 in Vero cells; format: cell-based; settings: Dengue virus
Procedure, shortened: as §1

[2] = DENV2, viral yield assay, Vero cells, MOI 0.1, 48 hours post infection

Nc1c(C(=O)Nc2ccc(F)cc2F)sc2nc(-c3cccs3)ccc12 [Compound 471, 3-amino-N-(2,4-difluorophenyl)-6-(2-thienyl)thieno[2,3-b]pyridine-2-carboxamide]
EC50 [1, 2]: < 5 µM
EC50 (DENV-1; DENV1, viral yield assay): < 5 µM
EC50 (DENV-4; DENV4, viral yield assay): < 5 µM
EC50 (DENV-3; DENV3, viral yield assay): < 5 µM

Nc1c(C(=O)Nc2ccccc2)sc2nc(-c3ccc(Cl)cc3)ccc12 [Compound 631, 3-amino-6-(4-chlorophenyl)-N-phenyl-thieno[2,3-b]pyridine-2-carboxamide]
EC50 [1, 2]: < 5 µM
EC50 (DENV-1; DENV1, viral yield assay): < 5 µM
EC50 (DENV-4; DENV4, viral yield assay): < 5 µM
EC50 (DENV-3; DENV3, viral yield assay): < 5 µM

Cc1ccc(-c2ccc3c(N)c(C(=O)Nc4ccc(Cl)cc4)sc3n2)cc1 [Compound 648, 3-amino-N-(4-chlorophenyl)-6-(p-tolyl) thieno[2,3-b]pyridine-2-carboxamide]
EC50 [1, 2]: < 5 µM
EC50 (DENV-1; DENV1, viral yield assay): < 5 µM
EC50 (DENV-4; DENV4, viral yield assay): < 5 µM
EC50 (DENV-3; DENV3, viral yield assay): < 5 µM

COc1ccc(-c2ccc3c(N)c(C(=O)Nc4ccc(C)cc4C)sc3n2)cc1OC [Compound 530, 3-amino-6-(3,4-dimethoxyphenyl)-N-(2,4-dimethylphenyl)thieno[2,3-b]pyridine-2-carboxamide]
EC50 [1, 2]: < 5 µM
EC50 (DENV-1; DENV1, viral yield assay): < 5 µM
EC50 (DENV-4; DENV4, viral yield assay): < 5 µM
EC50 (DENV-3; DENV3, viral yield assay): < 5 µM

CC(=O)c1ccc(NC(=O)c2sc3nc(-c4cccs4)ccc3c2N)cc1 [Compound 429, N-(4-acetylphenyl)-3-amino-6-(2-thienyl)thieno[2,3-b]pyridine-2-carboxamide]
EC50 [1, 2]: < 5 µM
EC50 (DENV-1; DENV1, viral yield assay): < 5 µM
EC50 (DENV-4; DENV4, viral yield assay): < 5 µM
EC50 (DENV-3; DENV3, viral yield assay): < 5 µM

COc1cccc(-c2ccc3c(N)c(C(=O)Nc4ccc(F)cc4)sc3n2)c1 [Compound 510, 3-amino-N-(4-fluorophenyl)-6-(3-methoxyphenyl)thieno[2,3-b]pyridine-2-carboxamide]
EC50 ([1]; DENV2, Vero, 48 h): < 5 µM
EC50 (DENV-1; DENV1, viral yield assay): < 5 µM
EC50 (DENV-4; DENV4, viral yield assay): < 5 µM
EC50 (DENV-3; DENV3, viral yield assay): < 5 µM

Nc1c(C(=O)Nc2ccc(Cl)cc2)sc2nc(-c3ccc(F)cc3)ccc12 [Compound 620, 3-amino-N-(4-chlorophenyl)-6-(4-fluorophenyl)thieno[2,3-b]pyridine-2-carboxamide]
EC50 [1, 2]: < 5 µM
EC50 (DENV-1; DENV1, viral yield assay): < 5 µM
EC50 (DENV-4; DENV4, viral yield assay): < 5 µM
EC50 (DENV-3; DENV3, viral yield assay): < 5 µM

Nc1c(C(=O)Nc2ccc(OC(F)(F)F)cc2)sc2nc(-c3ccncc3)ccc12 [Compound 417, 3-amino-6-(4-pyridyl)-N-[4-(trifluoromethoxy)phenyl]thieno[2,3-b] pyridine-2-carboxamide]
EC50 [1, 2]: < 5 µM
EC50 (DENV-1; DENV1, viral yield assay): < 5 µM
EC50 (DENV-4; DENV4, viral yield assay): < 5 µM
EC50 (DENV-3; DENV3, viral yield assay): < 5 µM

COc1ccc(C(F)(F)F)cc1NC(=O)c1sc2nc(-c3ccc4c(c3)OCO4)ccc2c1N [Compound 599, 3-amino-6-(1,3-benzodioxol-5-yl)-N-[2-methoxy-5-(trifluoromethyl)phenyl]thieno [2,3-b]pyridine-2-carboxamide]
EC50 [1, 2]: < 5 µM
EC50 (DENV-1; DENV1, viral yield assay): < 5 µM
EC50 (DENV-4; DENV4, viral yield assay): < 5 µM
EC50 (DENV-3; DENV3, viral yield assay): < 5 µM

COC(=O)c1ccc(NC(=O)c2sc3nc(-c4ccc(Cl)cc4)ccc3c2N)cc1 [Compound 645, methyl 4-[[3-amino-6-(4-chlorophenyl)thieno[2,3-b]pyridine-2-carbonyl]amino]benzoate]
EC50 [1, 2]: < 5 µM
EC50 (DENV-1; DENV1, viral yield assay): < 5 µM
EC50 (DENV-4; DENV4, viral yield assay): < 5 µM
EC50 (DENV-3; DENV3, viral yield assay): < 5 µM

O=C(O)CNc1c(C(=O)Nc2nnc(-c3ccccc3)s2)sc2nc3c(cc12)CCCCC3 [Compound 293, 2-((2-((5-phenyl-1,3,4-thiadiazol-2-yl)carbamoyl)-6,7,8,9-tetrahydro-5H-cyclohepta[b]thieno[3,2-e]pyridin-3-yl)amino)acetic acid]
EC50 ([1]; DENV2, Vero cells): < 5 µM
EC50 (DENV-1; DENV1): < 5 µM
EC50 (DENV-4; DENV4): < 5 µM
EC50 (DENV-3; DENV3): < 5 µM

Nc1c(C(=O)Nc2nnc(-c3ccccc3)s2)sc2nc3c(cc12)C(=O)CCCC3 [Compound 328]
EC50 [1, 2]: < 5 µM
EC50 (DENV-1; DENV1, viral yield assay): < 5 µM
EC50 (DENV-4; DENV4, viral yield assay): < 5 µM
EC50 (DENV-3; DENV3, viral yield assay): 5 to 25 µM

CN1CCc2nc3sc(C(=O)Nc4nnc(-c5ccccc5)s4)c(N)c3cc2C1 [Compound 301, 3-amino-6-methyl-N-(5-phenyl-1,3,4-thiadiazol-2-yl)-7,8-dihydro-5H-thieno[2,3-b][1,6]naphthyridine-2-carboxamide]
EC50 [1, 2]: < 5 µM
EC50 (DENV-1; DENV1, viral yield assay): < 5 µM
EC50 (DENV-4; DENV4, viral yield assay): < 5 µM
EC50 (DENV-3; DENV3, viral yield assay): 5 to 25 µM

Nc1c(C(=O)Nc2ccc(OC(F)(F)F)cc2)sc2nc3c(cc12)CCCCC3 [Compound 369, 3-amino-N-(4-(trifluroomethoxy)phenyl)-6,7,8,9-tetrahydro-5H-cyclohepta[b]thieno [3,2-e]pyridine-2-carboxamide]
EC50 [1, 2]: < 5 µM
EC50 (DENV-1; DENV1, viral yield assay): 5 to 25 µM
EC50 (DENV-4; DENV4, viral yield assay): < 5 µM
EC50 (DENV-3; DENV3, viral yield assay): < 5 µM

Nc1c(C(=O)Nc2ccc(F)c(F)c2)sc2nc(-c3cc(Cl)ccc3Cl)ccc12 [Compound 630, 3-amino-6-(2,5-dichlorophenyl)-N-(3,4-difluorophenyl)thieno[2,3-b]pyridine-2-carboxamide]
EC50 [1, 2]: < 5 µM
EC50 (DENV-1; DENV1, viral yield assay): < 5 µM
EC50 (DENV-4; DENV4, viral yield assay): < 5 µM
EC50 (DENV-3; DENV3, viral yield assay): < 5 µM

O=C(Nc1c(C(=O)Nc2nnc(-c3ccccc3)s2)sc2nc3c(cc12)CCCCC3)c1cccnc1 [Compound 297, 3-(nicotinamido)-N-(5-phenyl-1,3,4-thiadiazol-2-yl)-6,7,8,9-tetrahydro-5H-cyclohepta[b]thieno[3,2-e]pyridine-2-carboxamide]
EC50 ([1]; DENV2, Vero cells): < 5 µM
EC50 (DENV-1; DENV1): < 5 µM
EC50 (DENV-4; DENV4): < 5 µM
EC50 (DENV-3; DENV3): < 5 µM

Nc1c(C(=O)Nc2ccc3c(c2)OCO3)sc2nc(-c3ccc4c(c3)OCO4)ccc12 [Compound 591, 3-amino-N,6-bis(1,3-benzodioxol-5-yl) thieno[2,3-b]pyridine-2-carboxamide]
EC50 ([1]; DENV2, Vero, 48 h): < 5 µM
EC50 (DENV-1; DENV1, viral yield assay): < 5 µM
EC50 (DENV-4; DENV4, viral yield assay): < 5 µM
EC50 (DENV-3; DENV3, viral yield assay): < 5 µM

Nc1c(C(=O)Nc2ccc(Cl)c(C(F)(F)F)c2)sc2nc(-c3ccc4c(c3)OCO4)ccc12 [Compound 600, 3-amino-6-(1,3-benzodioxol-5-yl)-N-[4-chloro-3-(trifluoromethyl)phenyl]thieno [2,3-b]pyridine-2-carboxamide]
EC50 [1, 2]: < 5 µM
EC50 (DENV-1; DENV1, viral yield assay): < 5 µM
EC50 (DENV-4; DENV4, viral yield assay): < 5 µM
EC50 (DENV-3; DENV3, viral yield assay): < 5 µM

Nc1c(C(=O)Nc2ccc(C(F)F)cc2)sc2nc(-c3ccc(Cl)cc3)ccc12 [Compound 337, 3-amino-6-(4-chlorophenyl)-N-[4-(difluoromethyl)phenyl]thieno[2,3-b]pyridine-2-carboxamide]
EC50 [1, 2]: < 5 µM
EC50 (DENV-1; DENV1, viral yield assay): < 5 µM
EC50 (DENV-4; DENV4, viral yield assay): < 5 µM
EC50 (DENV-3; DENV3, viral yield assay): < 5 µM

COc1cccc(-c2ccc3c(N)c(C(=O)Nc4cccc(Cl)c4C)sc3n2)c1 [Compound 543, 3-amino-N-(3-chloro-2-methyl-phenyl)-6-(3-methoxyphenyl)thieno[2,3-b] pyridine-2-carboxamide]
EC50 [1, 2]: < 5 µM
EC50 (DENV-1; DENV1, viral yield assay): < 5 µM
EC50 (DENV-4; DENV4, viral yield assay): < 5 µM
EC50 (DENV-3; DENV3, viral yield assay): < 5 µM

Nc1c(C(=O)Nc2nnc(-c3ccccc3)s2)sc2nc3c(cc12)C(O)CCCC3 (stereo not shown) [Compound 329]
EC50 [1, 2]: < 5 µM
EC50 (DENV-1; DENV1, viral yield assay): < 5 µM
EC50 (DENV-4; DENV4, viral yield assay): < 5 µM
EC50 (DENV-3; DENV3, viral yield assay): 5 to 25 µM

COc1cccc(-c2ccc3c(N)c(C(=O)Nc4cccc(Cl)c4)sc3n2)c1 [Compound 561, 3-amino-N-(3-chlorophenyl)-6-(3-methoxyphenyl)thieno[2,3-b]pyridine-2-carboxamide]
EC50 [1, 2]: < 5 µM
EC50 (DENV-1; DENV1, viral yield assay): < 5 µM
EC50 (DENV-4; DENV4, viral yield assay): < 5 µM
EC50 (DENV-3; DENV3, viral yield assay): < 5 µM

COc1cccc(-c2ccc3c(N)c(C(=O)Nc4ccc(OC)cc4C)sc3n2)c1 [Compound 507, 3-amino-N-(4-methoxy-2-methyl-phenyl)-6-(3-methoxyphenyl)thieno[2,3-b] pyridine-2-carboxamide]
EC50 [1, 2]: < 5 µM
EC50 (DENV-1; DENV1, viral yield assay): < 5 µM
EC50 (DENV-4; DENV4, viral yield assay): < 5 µM
EC50 (DENV-3; DENV3, viral yield assay): < 5 µM

CN(C(=O)c1sc2nc(-c3cccs3)ccc2c1N)c1cccc(C(F)(F)F)c1 [Compound 322, 3-amino-N-methyl-6-(2-thienyl)-N-[3-(trifluoromethyl)phenyl]thieno[2,3-b]pyridine-2-carboxamide]
EC50 [1, 2]: < 5 µM
EC50 (DENV-1; DENV1, viral yield assay): < 5 µM
EC50 (DENV-4; DENV4, viral yield assay): < 5 µM
EC50 (DENV-3; DENV3, viral yield assay): < 5 µM

CCCCNc1c(C(=O)Nc2nnc(-c3ccccc3)s2)sc2nc3c(cc12)CCCCC3 [Compound 289, 3-(butylamino)-N-(5-phenyl-1,3,4-thiadiazol-2-yl)-6,7,8,9-tetrahydro-5H-cyclohepta[b]thieno[3,2-e]pyridine-2-carboxamide]
EC50 ([1]; DENV2, Vero cells): < 5 µM
EC50 (DENV-1; DENV1): < 5 µM
EC50 (DENV-4; DENV4): < 5 µM
EC50 (DENV-3; DENV3): < 5 µM

Nc1c(C(=O)Nc2cccc(Cl)c2)sc2nc(-c3ccc(Cl)cc3)ccc12 [Compound 344, 3-amino-N-(3-chlorophenyl)-6-(4-chloro-phenyl)thieno[2,3-b]pyridine-2-carboxamide]
EC50 [1, 2]: < 5 µM
EC50 (DENV-1; DENV1, viral yield assay): < 5 µM
EC50 (DENV-4; DENV4, viral yield assay): < 5 µM
EC50 (DENV-3; DENV3, viral yield assay): < 5 µM

C[N+](C)(C)CC(=O)Nc1c(C(=O)Nc2cccc(C(F)(F)F)c2)sc2nc(-c3cccs3)ccc12 [Compound 309, Trimethyl-[2-oxo-2-[[6-(2-thienyl)-2-[[3-(trifluoromethyl)phenyl]carbamoyl]thieno[2,3-b]pyridin-3-yl]amino]ethyl]ammonium]
EC50 ([1]; DENV2, Vero cells): < 5 µM
EC50 (DENV-1; DENV1): < 5 µM
EC50 (DENV-4; DENV4): < 5 µM
EC50 (DENV-3; DENV3): < 5 µM

COc1ccc(-c2ccc3c(N)c(C(=O)Nc4ccc(C(F)(F)F)cc4)sc3n2)cc1 [Compound 492, 3-amino-6-(4-methoxyphenyl)-N-[4-(trifluoromethyl)phenyl]thieno[2,3-b] pyridine-2-carboxamide]
EC50 [1, 2]: < 5 µM
EC50 (DENV-1; DENV1, viral yield assay): < 5 µM
EC50 (DENV-4; DENV4, viral yield assay): < 5 µM
EC50 (DENV-3; DENV3, viral yield assay): < 5 µM
